Source: patent US20210347823A1, “METHODS OF PHYSICOCHEMICAL-GUIDED PEPTIDE DESIGN AND NOVEL PEPTIDES DERIVED THEREFROM” (Massachusetts Institute of Technology, priority 2018, published 2021)

Experiments:
[1] = Mouse body weight / toxicity in the skin infection model; format: in vivo, mice; conditions: for mouse body weight: peptides used at 64 mol L^−1 (so in the source), compared to untreated mice
Procedure: FIGS. 8A-8D. In vivo activity of Pol-CP—NH2 and its analogs. FIG. 8A. Schematic of the experimental design. Briefly, the back of mice was shaved and an abrasion was generated to damage the stratum corneum and the upper layer of the epidermis. Subsequently, an aliquot of 50 μL containing 5×10^7 CFU of P. aeruginosa in PBS was inoculated over each defined area. One day after the infection, peptides (4 μmol L^−1) were administered to the infected area. Animals were euthanized and the area of scarified skin was excised two and four days post-infection (FIG. 8B) homogenized using a bead beater for 20 minutes (25 Hz), and serially diluted for CFU quantification (****p<0.0001). FIG. 8C. Mouse body weight measurements throughout the experiment normalized by the body weight of non-infected mice. […] FIG. 8D. Longer experiment (four days) using a higher concentration (64 μmol L^−1) of peptides Pol-CP—NH2 and [Lys]'-Pol-CP—NH2 (****p<0.0001).
Scarification Skin Infection Mouse Model. P. aeruginosa strain PA14 was grown to an optical density at 600 nm (OD600) of 1 in tryptic soy broth (TSB) medium. Subsequently cells were washed twice with sterile PBS (pH 7.4, 13,000 rpm for 1 minute), and resuspended to a final concentration of 5×10^7 CFU/50 ? L. To generate skin infection, female CD-1 mice (6 weeks old) were anesthetized with isoflurane and had their backs shaved. A superficial linear skin abrasion was made with a needle in order to damage the stratum corneum and upper-layer of the epidermis. Five minutes after wounding, an aliquot of 50 ? L containing 5×10^7 CFU of bacteria in PBS was inoculated over each defined area containing the scratch with a pipette tip. One day after the infection, peptides were administered to the infected area. Animals were euthanized and the area of scarified skin was excised two and four days post-infection, homogenized using a bead beater for 20 minutes (25 Hz), and serially diluted for CFU quantification. Two independent experiments were performed with 4 mice per group in each condition. Statistical significance was assessed using a one-way ANOVA.

[2] = test system: Gram-positive bacteria, Gram-negative bacteria and fungi (twelve different strains); assay: Liquid growth inhibition MIC against larger panel of microorganisms (MIC average); format: cell-based; conditions: for MIC Average: average of MIC over twelve different strains; for antimicrobial activity: second-generation analogs, larger panel
From the text: FIGS. 5A-5D. Antimicrobial activity of second-generation library of synthetic peptides. FIG. 5A. In vitro activity of Pol-CP—NH2 and second generation of analogs against Gram-positive bacteria (Micrococcus luteus, Staphylococcus aureus, Staphylococcus epidermidis and Bacillus megaterium), Funghi (Candida albicans and Candida tropicalis) and Gram-negative bacteria (Escherichia coli, Enterobacter cloacae and Serratia marcescens). Experiments performed in triplicates. FIG. 5B. MIC (μmol L^−1) average vs fH in TFE/Water solution. FIG. 5C. Graph correlating MIC (μmol L^−1) averages vs H and (FIG. 5D) MIC (μmol L^−1) averages vs μH, where dots above the dashed line represent peptides with lower activity and dots below the dashed line show peptides with higher activity compared to the wild-type, in which one can observe ranges of optimal activity in determined intervals of H and μH values.
Microorganisms. The following strains were used: Micrococcus luteus A270, Staphylococcus aureus ATCC29213, Staphylococcus epidermidis ATCC12228, Bacillus megaterium ATCC10778 Escherichia coli SBS 363, Enterobacter cloacae ®-12, Serratia marcescens ATCC4112, Candida albicans MDM8, Candida tropicalis IOC4560 from Instituto Butanta, Sao Paulo, Brazil, and Escherichia coli BL21, Pseudomonas aeruginosa PA14, Pseudomonas aeruginosa PA01 and Staphylococcus aureus ATCC12600 from Synthetic Biology Group at MIT.
MIC assays. The MIC assays were performed using the broth microdilution method (Wiegand I. et al., Protoc. 3, 163-175 (2008); de la Fuente-Núñez C. et al., Antimicrob. Agents Chemother. 56, 2696-2704 (2012)) in sterile 96-well polypropylene microtiter plates. Peptides were added to the plate as solutions in BM2 minimal medium in concentrations ranging from 0 to 128 ? mol L^−1, and the bacteria were inoculated at a final concentration of 5×10^5 CFU mL^−1 per well. The plates were incubated at 37° C. for 24 h. The MIC was defined as the lowest concentration of compound at which no growth was observed. Additional liquid growth inhibition assays were done in Peptone Broth (PB, 0.5% NaCl, 1% Peptone at pH 7.4) and Potato Dextrose Broth (Invitrogen) were used for antibacterial and antifungal assays, respectively. Briefly, bacteria or fungi were incubated with serial dilutions of polybia-CP and analogs (50-0.09 μmol L^−1) in a 96-well microplate at 37° C. The microbial growth was assessed by measurements in a model 354 Multiskan Ascent microplate reader at A595nm, after 18 and 24 h (bacteria and fungi, respectively) incubation on a model 347CD FANEM incubator. MIC was defined as the minimal inhibitory concentration that prevents 100% of the bacterial growth. All assays were done in triplicate.

Substance: H-ILGTILGLLKSL-NH2 [WT, ILGTILGLLKSL-NH2, reference compound]
- mouse body weight [1]: did not change significantly
- MIC Average [2]: 16.2 µM

Substance: H-ILGTILKLLKSL-NH2 [Peptide 16, ILGTILKLLKSL-NH2]
- mouse body weight [1]: did not change significantly
- toxicity to mice ([1]; single dose): non-toxic
- MIC Average [2]: 1.4 µM
- antimicrobial activity ([2]; listed as [Lys]'-Pol-CP—NH2): impacted favorably both structure and antimicrobial activity
- antimicrobial activity ([2]; listed as [Lys]^7-Pol-CP—NH2): most active
